Measurements: patent US20070134259A1, “Methods and compositions for pharmacologially controlled targeted immunotherapy” (priority 2005, published 2007)

Assays:
purified integrin αvβ3 = molecular target: T1, purified integrin αvβ3 (Homo sapiens, UniProt P05106+P06756); assay: ELISA on purified receptor: RGD-STZ ligand mediated ternary complex formation with anti-STZ rabbit serum; type: binding
T1 construct: purchased Chemicon
Procedure: Indirect recognition of integrin by streptavidin mediated by RGD-biotin was used as positive control.
96 well polystyrene plates (Nunc) were coated with 1 μg/ml of purified integrin αvβ3 (Chemicon) in buffer: 50 mM Hepes , 0.1 M NaCl, 2 mM CaCl2, 1 mM MnCl2, 1 mM MgCl2 pH 7.5. Blocking was performed with 3% BSA in the same buffer for at least 1 hr.
Ternary complex formation was obtained in concurrent or sequential mode. For sequential mode experiment the ELISA plate was incubated with RGD-STZ (root of ten dilutions starting from 10 μg/ml); 2 hr, room temperature, followed by anti-STZ rabbit serum diluted 3000 times, 1 hr RT. In the concurrent mode the incubation mixture contained both RGD-STZ and anti-STZ rabbit serum. Serum concentration was kept constant (1/3000) while RGD-STZ concentration was varied as before; incubation time 2 hr. The formed complex was detected with goat anti-Rabbit HRP conjugate. Dilutions were made in same buffer supplemented with 0.05% Tween and 0.1% BSA. BSA was not included in the washing steps.
Solid-phase assays were conducted in two different formats: concurrent and sequential incubation. In the concurrent format, RGD-STZ was premixed with rabbit serum 1E6 and incubated on the plate, which was pre-coated with integrin αvβ3. In the sequential format, RGD-STZ was incubated on the integrin coated plate, washed and rabbit serum 1E6 was applied. In both formats, the signal was developed by detection of rabbit antibodies with anti-rabbit HRP antibody conjugate. […] This range of IBAIT concentrations in which a stable ternary complex is produced constitutes a therapeutic window, where the IBAIT can be applied for targeting immunoglobulins to malignancies.
That is, the sequential addition of antibody results in the continued formation of stable ternary complexes until receptor saturation plateaus.

HTB-14 cells = assay: Ligand-mediated immunostaining of cells via RGD-STZ and anti-STZ serum; type: cell-based; details: sequential: RGD-STZ, formaldehyde fixation, anti-STZ serum
Procedure: Cells could be stained through the ligand mediated association of antibody to the integrin molecule on the cell.
Ligand-mediated staining of HTB-14 cells was performed by incubations in sequential order. Cell were first treated with RGD-STZ then fixed with formaldehyde and stained using anti-STZ serum.
Cells were cultivated as described above. For staining, 6 well tissue culture plate containing chambered cover glasses was placed on ice and medium (DMEM, 10% FBS) replaced with same medium containing mixture of RGD-STZ and anti-STZ serum premixed at proportion giving highest signal in ELISA assay (˜10 μg of RGD-STZ in ml of rabbit serum). Mixture of RGD-STZ and serum was diluted in medium 30, 300 and 3000 times.
After 30 min of incubation specimens were washed with ice cold medium 3 times and incubated with Goat anti-Rabbit Alexa488 at concentration 10 μg/ml in DMEM. After 3 rinses with ice cold DMEM cells were fixed with 10% paraformaldehyde in PBS at room temperature, washed with PBS and mounted as above.
In some experiments cells were primed with RGD-STZ (50 μg/ml in DMEM) on ice for 20 min. then fixed with paraformaldehyde and stained further like described in first protocol.

T1 sequence (P06756 31-889 limits assumed): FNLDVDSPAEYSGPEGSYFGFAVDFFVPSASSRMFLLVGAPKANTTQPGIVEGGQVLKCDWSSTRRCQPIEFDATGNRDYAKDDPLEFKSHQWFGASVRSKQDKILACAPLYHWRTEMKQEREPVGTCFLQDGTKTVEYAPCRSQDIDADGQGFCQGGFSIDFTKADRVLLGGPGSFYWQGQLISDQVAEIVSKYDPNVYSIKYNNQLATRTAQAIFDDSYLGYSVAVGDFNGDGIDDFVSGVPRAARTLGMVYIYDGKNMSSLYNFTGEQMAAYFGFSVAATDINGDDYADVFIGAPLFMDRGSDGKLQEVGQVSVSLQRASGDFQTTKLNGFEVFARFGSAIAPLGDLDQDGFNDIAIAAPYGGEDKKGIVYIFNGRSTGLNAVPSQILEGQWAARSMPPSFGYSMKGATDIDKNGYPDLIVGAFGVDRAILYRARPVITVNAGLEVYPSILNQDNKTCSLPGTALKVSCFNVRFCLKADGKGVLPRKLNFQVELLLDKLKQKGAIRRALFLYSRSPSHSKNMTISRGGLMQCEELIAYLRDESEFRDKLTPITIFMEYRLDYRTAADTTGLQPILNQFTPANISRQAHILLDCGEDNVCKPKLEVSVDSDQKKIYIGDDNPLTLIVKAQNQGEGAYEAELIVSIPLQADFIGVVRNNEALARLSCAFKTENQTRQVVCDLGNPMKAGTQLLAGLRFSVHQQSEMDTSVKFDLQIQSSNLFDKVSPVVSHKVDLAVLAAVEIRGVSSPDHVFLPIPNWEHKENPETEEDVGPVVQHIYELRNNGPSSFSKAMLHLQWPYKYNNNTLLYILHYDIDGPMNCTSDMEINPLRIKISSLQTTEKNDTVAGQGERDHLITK
T1 sequence (P06756 891-1048 partner limits assumed): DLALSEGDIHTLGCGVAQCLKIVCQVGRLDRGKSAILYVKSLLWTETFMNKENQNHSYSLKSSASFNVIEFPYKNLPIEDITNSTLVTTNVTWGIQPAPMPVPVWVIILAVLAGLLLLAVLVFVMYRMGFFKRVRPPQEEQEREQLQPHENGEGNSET
T1 sequence (P05106 27-788): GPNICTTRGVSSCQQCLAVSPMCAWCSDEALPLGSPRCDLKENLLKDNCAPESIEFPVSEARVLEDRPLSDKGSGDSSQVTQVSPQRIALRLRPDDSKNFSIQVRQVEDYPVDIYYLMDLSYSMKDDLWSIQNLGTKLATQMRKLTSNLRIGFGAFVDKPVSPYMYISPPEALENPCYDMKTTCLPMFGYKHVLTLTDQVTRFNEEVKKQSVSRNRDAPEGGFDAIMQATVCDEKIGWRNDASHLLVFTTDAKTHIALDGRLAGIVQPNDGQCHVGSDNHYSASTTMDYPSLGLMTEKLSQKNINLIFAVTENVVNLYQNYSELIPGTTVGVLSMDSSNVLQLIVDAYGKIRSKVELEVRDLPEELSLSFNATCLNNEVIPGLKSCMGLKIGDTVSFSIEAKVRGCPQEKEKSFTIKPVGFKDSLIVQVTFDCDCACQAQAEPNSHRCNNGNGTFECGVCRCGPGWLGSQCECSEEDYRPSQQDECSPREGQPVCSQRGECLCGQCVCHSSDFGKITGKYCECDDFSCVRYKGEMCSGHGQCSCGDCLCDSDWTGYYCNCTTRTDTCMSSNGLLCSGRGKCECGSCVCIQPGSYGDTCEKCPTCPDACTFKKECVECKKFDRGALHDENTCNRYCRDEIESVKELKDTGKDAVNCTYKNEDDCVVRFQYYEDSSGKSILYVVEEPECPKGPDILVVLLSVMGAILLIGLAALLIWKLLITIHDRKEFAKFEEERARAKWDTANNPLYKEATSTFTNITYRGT

In the case of cyclo(-R-G-D-f-K(STZ)) [RGD-STZ], the “concentration dependence of ELISA signal (ternary complex formation), concurrent incubation” value (purified integrin αvβ3; concurrent format: RGD-STZ premixed with rabbit serum, incubated on integrin coated plate, FIG. 5A) is reported as “bell-shaped concentration dependencies”, the “indirect recognition of the integrin by anti-STZ antibodies mediated by the ligand” value (purified integrin αvβ3; plates coated with purified αvβ3 integrin, anti-STZ rabbit serum, goat anti-Rabbit HRP detection) is reported as “excellent indirect recognition” and the “proportion of RGD-STZ and anti-STZ serum giving highest signal in ELISA assay” value (purified integrin αvβ3; premixed RGD-STZ and anti-STZ serum) is reported as ~10 μg of RGD-STZ in ml of rabbit serum. The “concentration dependence of ELISA signal (ternary complex formation), sequential incubation” value (purified integrin αvβ3; sequential format: RGD-STZ incubated on integrin coated plate, washed, then rabbit serum, FIG. 5B) was “signal that steadily increased with increasing RGD-STZ (IBAIT) concentration” and the “ligand-mediated staining pattern of cells” value (HTB-14 cells) was “distinct pattern of dots on the plasma membrane as well as general fluorescent illumination of cells”.
